From patent US20230241093A1, “TARGETING ADISPSIN FOR NONALCOHOLIC STEATOHEPATITIS (NASH)- INDUCED LIVER FIBROSIS” (The Trustees of Columbia University in the City of New York, priority 2020, published 2023) come the findings set out here.

The assay has as its system hepatic stellate cells (HSC). Kind of assay: Gene expression in hepatic stellate cells after treatment with recombinant C3a. The conditions noted are these: recombinant C3a vs control (vehicle alone), FIG. 3B. The class given is cell-based. The procedure: FIG. 3. Adipsin/C3a effects on liver fibrosis. A. Complement C3 cleavage products as assessed by Western blot in conditioned medium from hepatocytes with or without Adipsin expression. B. Gene expression in hepatic stellate cells (HSC) after treatment with vehicle or recombinant C3a.
The effects of Adipsin/C3a on liver fibrosis was analyzed.

On to “recombinant C3a: recombinant complement C3 cleavage product C3a, used to treat hepatic stellate cells”, for which the “Acta2 gene expression in hepatic stellate cells” value is “dose dependent increase” and the “Collal gene expression in hepatic stellate cells” value was “dose dependent increase”.
